These are literature values, as cited in patent publication US20200170998A1, “UMBILICAL CORD BLOOD SERUM AND UMBILICAL CORD BLOOD PLASMA PREPARATION IN COMBINATION WITH A NONSTEROIDAL ANTI-INFLAMMATORY DRUG AND FREEZE-DRYING THE COMPOSITION” (CELLULA LLC, priority 2018, published 2020).

For this data set, the system named is corneal epithelial cells. The settings on record: in-vitro; control a balanced salt solution.
Take `O=C(O)Cc1ccccc1Nc1c(Cl)cccc1Cl` [Diclofenac]: the “toxicity on corneal epithelial cells” value was “significant cellular toxicity”.

Consider `CC(=O)[C@@]1(O)CC[C@H]2[C@@H]3C[C@H](C)C4=CC(=O)C=C[C@]4(C)[C@@]3(F)[C@@H](O)C[C@@]21C` [Flourometholone], for which the “toxicity on corneal epithelial cells” value was “most severe toxicity”.

For `Nc1c(CC(=O)O)cccc1C(=O)c1ccc(Br)cc1` [bromfenac], the “toxicity on corneal epithelial cells” value was “less cellular damage and showed no difference with the control”.

`CC(C(=O)O)c1ccc2c(c1)Cc1cccnc1O2` (stereo not shown) [pranoprofen]: the “toxicity on corneal epithelial cells” value is “less cellular damage and showed no difference with the control”.
